tested on: H460; assay: Cellular H460 viability assay (CellTiter-Glo, 72 hours); assay type: cell-based; details: Homo sapiens, NCI-H460
Procedure, shortened: (§1)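 Luminescent ATP read-out (CellTiter-Glo) after 72 h compound exposure at 37 °C/5% CO2; duplicate wells; vehicle control DMSO <0.1% final; seeding density set per cell line.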

| IC50 [nM] | Structure (SMILES) |
| --- | --- |
| < 1000 | CC(C)c1cnn2c(NCc3ccccc3-c3nc4ccccc4[nH]3)nc(N3CCC(N)CC3)nc12 [Compound 98] |
| < 1000 | CC(C)c1cnn2c(NCc3ccccc3-c3cnc4ccccc4n3)nc(N3CCC(N)CC3)nc12 [Compound 80] |
| < 1000 | CC(C)c1cnn2c(NCc3ccccc3-n3cccn3)nc(N3CCC(C)(N)CC3)nc12 [Compound 27] |

tested on: RPMI-8226; assay: Cellular RPMI-8226 viability assay (CellTiter-Glo, 72 hours); assay type: cell-based; details: Homo sapiens
Procedure, shortened: as §1

| IC50 [nM] | Structure (SMILES) |
| --- | --- |
| < 1000 | CC(C)c1cnn2c(NCc3ccccc3-c3nc4ccccc4[nH]3)nc(N3CCC(N)CC3)nc12 [Compound 98] |
| < 1000 | CC(C)c1cnn2c(NCc3ccccc3-c3cnc4ccccc4n3)nc(N3CCC(N)CC3)nc12 [Compound 80] |
| < 1000 | CC(C)c1cnn2c(NCc3ccccc3-n3cccn3)nc(N3CCC(C)(N)CC3)nc12 [Compound 27] |

biological target: T1, CDK5/p25 (Homo sapiens, UniProt Q00535); assay: Enzymatic assay for CDK5 (FRET based LANCE Ultra kinase assay); assay type: biochemical; details: read-out: CDK5 enzymatic activity (IC50 range)
T1 construct: purchased Invitrogen PR8543B
Procedure, shortened: (§2)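 LANCE Ultra TR-FRET: ULight-MBP peptide (68 nM) with ATP at Km, […], 60 min at 23° C. EDTA plus Eu-anti-phospho-MBP added, another 60 min, then 665/615 nm emission read. Compounds tested as 8-dose 4-fold DMSO dilutions.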

T1 sequence (Q00535 whole entry): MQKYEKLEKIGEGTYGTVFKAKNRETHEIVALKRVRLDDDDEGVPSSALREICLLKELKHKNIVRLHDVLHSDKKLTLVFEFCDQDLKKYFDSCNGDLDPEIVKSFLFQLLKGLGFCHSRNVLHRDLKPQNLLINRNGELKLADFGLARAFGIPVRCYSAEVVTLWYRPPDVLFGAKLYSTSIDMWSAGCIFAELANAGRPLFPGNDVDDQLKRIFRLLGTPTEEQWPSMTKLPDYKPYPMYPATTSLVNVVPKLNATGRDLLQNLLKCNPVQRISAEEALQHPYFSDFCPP
T1 sequence (Q15078 99-307 partner limits assumed): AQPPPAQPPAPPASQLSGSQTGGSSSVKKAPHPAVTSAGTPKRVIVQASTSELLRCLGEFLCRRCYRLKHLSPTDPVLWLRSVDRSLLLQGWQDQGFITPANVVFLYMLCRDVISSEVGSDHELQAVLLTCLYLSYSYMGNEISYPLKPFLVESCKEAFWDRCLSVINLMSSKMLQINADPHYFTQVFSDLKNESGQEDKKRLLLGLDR

| IC50 [nM] | Structure (SMILES) |
| --- | --- |
| < 100 | CC(C)c1cnn2c(NCc3ccccc3-c3nc4ccccc4[nH]3)nc(N3CCC(N)CC3)nc12 [Compound 98] |
| < 100 | CC(C)c1cnn2c(NCc3ccccc3-c3cnc4ccccc4n3)nc(N3CCC(N)CC3)nc12 [Compound 80] |
| < 100 | CC(C)c1cnn2c(NCc3ccccc3-n3cccn3)nc(N3CCC(C)(N)CC3)nc12 [Compound 27] |

biological target: T2, CDK7/Cyclin H/MNAT1 (Homo sapiens, UniProt P50613); assay: Enzymatic assay for CDK7 (FRET based LANCE Ultra kinase assay); assay type: biochemical; details: CDK7 over CDK1
T2 construct: purchased Invitrogen PR6749B
Procedure, shortened: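 Inhibition was measured at Km ATP by time-resolved FRET between a Eu anti-phospho antibody and a phosphorylated ULight peptide. The enzyme was the purified CDK7/cyclin complex, and data were curve-fitted.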

T2 sequence (P50613 whole entry): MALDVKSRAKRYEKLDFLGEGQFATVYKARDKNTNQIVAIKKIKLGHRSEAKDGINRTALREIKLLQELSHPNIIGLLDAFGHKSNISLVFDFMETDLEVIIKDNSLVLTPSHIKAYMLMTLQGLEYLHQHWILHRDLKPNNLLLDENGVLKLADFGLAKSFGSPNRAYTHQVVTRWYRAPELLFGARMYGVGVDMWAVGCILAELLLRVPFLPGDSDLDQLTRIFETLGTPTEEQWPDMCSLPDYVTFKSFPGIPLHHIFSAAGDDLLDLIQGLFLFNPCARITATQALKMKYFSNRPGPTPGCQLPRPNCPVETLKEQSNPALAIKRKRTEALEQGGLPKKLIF
T2 sequence (P51946 whole entry partner): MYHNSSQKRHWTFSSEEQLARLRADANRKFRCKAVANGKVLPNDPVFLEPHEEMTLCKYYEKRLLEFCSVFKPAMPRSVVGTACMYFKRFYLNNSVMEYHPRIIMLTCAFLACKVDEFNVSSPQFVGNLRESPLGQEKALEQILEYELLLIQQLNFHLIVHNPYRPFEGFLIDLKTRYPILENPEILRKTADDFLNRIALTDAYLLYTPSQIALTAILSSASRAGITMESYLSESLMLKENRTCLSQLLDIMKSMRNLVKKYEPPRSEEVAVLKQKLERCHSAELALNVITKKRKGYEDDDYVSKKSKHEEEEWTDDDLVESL
T2 sequence (P51948 whole entry partner): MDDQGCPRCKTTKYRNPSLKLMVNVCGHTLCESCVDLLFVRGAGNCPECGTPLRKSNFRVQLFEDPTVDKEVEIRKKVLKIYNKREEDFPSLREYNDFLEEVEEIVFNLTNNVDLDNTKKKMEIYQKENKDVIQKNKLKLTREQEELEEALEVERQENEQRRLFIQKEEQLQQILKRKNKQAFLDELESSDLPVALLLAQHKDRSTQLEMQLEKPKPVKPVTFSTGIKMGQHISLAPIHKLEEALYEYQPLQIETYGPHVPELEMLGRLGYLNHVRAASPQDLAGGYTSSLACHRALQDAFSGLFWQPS

| CDK1/CDK7: Selectivity of CDK7 inhibition over CDK1 inhibition | Structure (SMILES) |
| --- | --- |
| A (A=greater than 200 fold) | CC(C)c1cnn2c(NCc3ccccc3-c3nc4ccccc4[nH]3)nc(N3CCC(N)CC3)nc12 [Compound 98] |
| A (A=greater than 200 fold) | CC(C)c1cnn2c(NCc3ccccc3-c3cnc4ccccc4n3)nc(N3CCC(N)CC3)nc12 [Compound 80] |
| A (A=greater than 200 fold) | CC(C)c1cnn2c(NCc3ccccc3-n3cccn3)nc(N3CCC(C)(N)CC3)nc12 [Compound 27] |

same assay, conditions: CDK7 over CDK2

| Structure (SMILES) | CDK2/CDK7: Selectivity of CDK7 inhibition over CDK2 inhibition |
| --- | --- |
| CC(C)c1cnn2c(NCc3ccccc3-c3nc4ccccc4[nH]3)nc(N3CCC(N)CC3)nc12 [Compound 98] | B (B=less than 200 fold, but greater than 20 fold) |
| CC(C)c1cnn2c(NCc3ccccc3-c3cnc4ccccc4n3)nc(N3CCC(N)CC3)nc12 [Compound 80] | B (B=less than 200 fold, but greater than 20 fold) |
| CC(C)c1cnn2c(NCc3ccccc3-n3cccn3)nc(N3CCC(C)(N)CC3)nc12 [Compound 27] | B (B=less than 200 fold, but greater than 20 fold) |

same assay, conditions: CDK7 over CDK5

| Structure (SMILES) | CDK5/CDK7: Selectivity of CDK7 inhibition over CDK5 inhibition |
| --- | --- |
| CC(C)c1cnn2c(NCc3ccccc3-c3nc4ccccc4[nH]3)nc(N3CCC(N)CC3)nc12 [Compound 98] | B (B=less than 200 fold, but greater than 20 fold) |
| CC(C)c1cnn2c(NCc3ccccc3-c3cnc4ccccc4n3)nc(N3CCC(N)CC3)nc12 [Compound 80] | B (B=less than 200 fold, but greater than 20 fold) |
| CC(C)c1cnn2c(NCc3ccccc3-n3cccn3)nc(N3CCC(C)(N)CC3)nc12 [Compound 27] | B (B=less than 200 fold, but greater than 20 fold) |

same assay, conditions: read-out: CDK7 enzymatic activity (IC50 range)

| IC50 [nM] | Structure (SMILES) |
| --- | --- |
| < 100 | CC(C)c1cnn2c(NCc3ccccc3-c3nc4ccccc4[nH]3)nc(N3CCC(N)CC3)nc12 [Compound 98] |
| < 100 | CC(C)c1cnn2c(NCc3ccccc3-c3cnc4ccccc4n3)nc(N3CCC(N)CC3)nc12 [Compound 80] |
| < 100 | CC(C)c1cnn2c(NCc3ccccc3-n3cccn3)nc(N3CCC(C)(N)CC3)nc12 [Compound 27] |

tested on: MV4-11; assay: Cellular MV4-11 viability assay (CellTiter-Glo, 72 hours); assay type: cell-based; details: Homo sapiens
Procedure, shortened: as §1

| IC50 [nM] | Structure (SMILES) |
| --- | --- |
| < 1000 | CC(C)c1cnn2c(NCc3ccccc3-c3nc4ccccc4[nH]3)nc(N3CCC(N)CC3)nc12 [Compound 98] |
| < 1000 | CC(C)c1cnn2c(NCc3ccccc3-c3cnc4ccccc4n3)nc(N3CCC(N)CC3)nc12 [Compound 80] |
| < 1000 | CC(C)c1cnn2c(NCc3ccccc3-n3cccn3)nc(N3CCC(C)(N)CC3)nc12 [Compound 27] |

tested on: MOLT-4; assay: Cellular MOLT-4 viability assay (CellTiter-Glo, 72 hours); assay type: cell-based; details: Homo sapiens, MOLT4 viability assay
Procedure, shortened: as §1

| IC50 [nM] | Structure (SMILES) |
| --- | --- |
| < 1000 | CC(C)c1cnn2c(NCc3ccccc3-c3nc4ccccc4[nH]3)nc(N3CCC(N)CC3)nc12 [Compound 98] |
| 1000 to 10000 | CC(C)c1cnn2c(NCc3ccccc3-c3cnc4ccccc4n3)nc(N3CCC(N)CC3)nc12 [Compound 80] |
| 1000 to 10000 | CC(C)c1cnn2c(NCc3ccccc3-n3cccn3)nc(N3CCC(C)(N)CC3)nc12 [Compound 27] |

biological target: T3, CDK1/Cyclin B (Homo sapiens, UniProt P06493); assay: Enzymatic assay for CDK1 (FRET based LANCE Ultra kinase assay); assay type: biochemical; details: read-out: CDK1 enzymatic activity (IC50 range)
T3 construct: purchased Invitrogen PR4768C
Procedure, shortened: as §2

T3 sequence (P06493 whole entry): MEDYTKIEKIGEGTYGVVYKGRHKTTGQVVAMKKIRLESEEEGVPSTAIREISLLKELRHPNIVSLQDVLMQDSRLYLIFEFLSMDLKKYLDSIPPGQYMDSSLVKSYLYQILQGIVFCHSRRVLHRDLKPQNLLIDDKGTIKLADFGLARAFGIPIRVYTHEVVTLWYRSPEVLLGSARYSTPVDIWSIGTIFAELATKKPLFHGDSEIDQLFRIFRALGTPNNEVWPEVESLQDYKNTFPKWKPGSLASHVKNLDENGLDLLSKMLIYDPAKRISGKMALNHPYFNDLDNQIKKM
T3 sequence (P14635 whole entry partner): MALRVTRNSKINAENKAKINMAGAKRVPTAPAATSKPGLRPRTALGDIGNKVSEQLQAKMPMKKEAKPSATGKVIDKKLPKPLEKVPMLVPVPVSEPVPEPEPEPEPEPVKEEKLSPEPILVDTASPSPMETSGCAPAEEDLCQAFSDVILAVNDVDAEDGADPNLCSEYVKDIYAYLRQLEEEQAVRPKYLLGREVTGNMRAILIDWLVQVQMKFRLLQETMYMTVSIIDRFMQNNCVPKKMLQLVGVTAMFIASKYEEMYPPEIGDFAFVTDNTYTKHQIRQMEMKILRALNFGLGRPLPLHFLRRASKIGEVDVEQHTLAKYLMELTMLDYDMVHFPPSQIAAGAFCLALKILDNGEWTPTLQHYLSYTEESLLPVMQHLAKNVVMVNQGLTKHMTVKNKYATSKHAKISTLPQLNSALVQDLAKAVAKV

| IC50 [nM] | Structure (SMILES) |
| --- | --- |
| 100 to 1000 | CC(C)c1cnn2c(NCc3ccccc3-c3nc4ccccc4[nH]3)nc(N3CCC(N)CC3)nc12 [Compound 98] |
| 100 to 1000 | CC(C)c1cnn2c(NCc3ccccc3-c3cnc4ccccc4n3)nc(N3CCC(N)CC3)nc12 [Compound 80] |
| 100 to 1000 | CC(C)c1cnn2c(NCc3ccccc3-n3cccn3)nc(N3CCC(C)(N)CC3)nc12 [Compound 27] |

tested on: HCT116; assay: Cellular HCT116 viability assay (CellTiter-Glo, 72 hours); assay type: cell-based; details: Homo sapiens, HCT-116
Procedure, shortened: as §1

| IC50 [nM] | Structure (SMILES) |
| --- | --- |
| < 1000 | CC(C)c1cnn2c(NCc3ccccc3-c3nc4ccccc4[nH]3)nc(N3CCC(N)CC3)nc12 [Compound 98] |
| < 1000 | CC(C)c1cnn2c(NCc3ccccc3-c3cnc4ccccc4n3)nc(N3CCC(N)CC3)nc12 [Compound 80] |
| < 1000 | CC(C)c1cnn2c(NCc3ccccc3-n3cccn3)nc(N3CCC(C)(N)CC3)nc12 [Compound 27] |

biological target: T4, CDK2/Cyclin A (Homo sapiens, UniProt P24941); assay: Enzymatic assay for CDK2 (FRET based LANCE Ultra kinase assay); assay type: biochemical; details: read-out: CDK2 enzymatic activity (IC50 range)
T4 construct: purchased Invitrogen PV6290
Procedure, shortened: as §2

| IC50 [nM] | Structure (SMILES) |
| --- | --- |
| 100 to 1000 | CC(C)c1cnn2c(NCc3ccccc3-c3nc4ccccc4[nH]3)nc(N3CCC(N)CC3)nc12 [Compound 98] |
| 100 to 1000 | CC(C)c1cnn2c(NCc3ccccc3-c3cnc4ccccc4n3)nc(N3CCC(N)CC3)nc12 [Compound 80] |
| 100 to 1000 | CC(C)c1cnn2c(NCc3ccccc3-n3cccn3)nc(N3CCC(C)(N)CC3)nc12 [Compound 27] |

From patent publication US11945822B2, “Pyrazolo-triazine and/or pyrazolo-pxrimidine derivatives as selective inhibitor of cyclin dependent kinase” (QURIENT CO., LTD., priority 2018, dated 2024)
